{"source": "patent US4939177A", "about": "“Use of avarol for the control of AIDS and ARC” (Merz + Co. GmbH & Co., priority 1986, dated 1990)", "key": {"[1]": {"test_system": "L5178y mouse lymphoma cells", "experiment": "L5178y cell growth", "assay_type": "cell-based", "conditions": "Mus musculus, L5178Y, absence of Avarol", "description": "mouse lymphoma cells were grown in roller tube cultures in Eagle's minimum essential medium, supplemented with 10% horse serum (Muller et al., Cancer Res. 39: 1102-1107; 1979 and Muller et al. Cancer Res. 45: 4822-4826; 1985). […] The cell growth was determined by cell count with a computer supported cell-counter (128-channel counter; Cytocomp, system Michaelis: BIOTRON-Medizinelektronik, Mainz; West Germany). The ED50 (±SD) was estimated by logit regression (L. Sachs, […], Springer-Verlag, Berlin 1984). The mathematical evaluation of the fractional inhibitory concentration indices (FIC indices) of Avarol/Avarone-DDC combinations was performed according to published equations and experimental conditions (Muller et al., Cancer Lett. 1: 127-132; 1976; and Phillips et al., Antimicrob. Agents Chemother. 9: 736-740, 1976). […] In this set of experiments, […] cells were incubated with Avarol in the absence or presence of the established SODase inhibitor DDC."}, "[2]": {"test_system": "DTH to oxazolone in NMRI mice", "experiment": "Contact allergy to oxazolone", "assay_type": "in vivo, mouse", "conditions": "30 mg/kg per os", "description": "Allergic contact dermatitis against oxazolone was produced according to the method of Asherson and Ptak (Immunol. 15: 405-416; 1968) as well as those of Bure and Degrand (Agents and Actions 9: 534; 1979). Male NMRI mice (20-22 g; 10/group) were sensitized with 100 μl of a 2% oxazolone in acetone solution onto the shaved abdomen (day 0). Animals were treated with avarol (i.p.) daily from day -1 to +2 or from day +6 to +8; control group was treated with deoxymethasone (Casella-Hoechst) as a standard per os at a daily dose of 30 mg/kg for the same period of time as for avarol. Seven days after sensitization 10 μl of a 3% oxazolane (this concentration was previously found to give more reproducible results than the lower 2% concentration) solution were topically applied onto the inner side of one ear, whereas the other ear received only acetone. […] Treated groups were compared with controls using the U-test."}, "[3]": {"test_system": "mouse leukemia cells L5178-Y", "conditions": "in vitro and in vivo; cited from earlier work"}, "herpes simplex virus": {"test_system": "herpes simplex virus", "conditions": "in vitro, cultures of herpes simplex virus; cited from earlier work"}}, "data": [{"smiles": "CCN(CC)C(=S)S", "note": "[DDC, diethyldithiocarbamate, reference compound]", "values": [{"measurement": "inhibition at 1.46 µM", "setting": "[1]; DDC 1.46 μM", "value": 26, "unit": "%"}, {"measurement": "inhibition at 1.71 µM", "setting": "[1]; DDC 1.71 μM", "value": 38, "unit": "%"}]}, {"smiles": "C[C@@H]1C[C@H]2[C@@H]3CCC4=CC(=O)C=C[C@]4(C)[C@@]3(F)[C@@H](O)C[C@]2(C)[C@H]1C(=O)CO", "note": "[Deoxymethasone]", "values": [{"measurement": "influence on DTH reaction to oxazolone, in words", "setting": "[2]; both schedules", "value": "significant immunosuppressive influence"}, {"measurement": "24 hours increase in ear thickness", "setting": "[2]; day +6 to +8, control 18.5±3.7", "value": "10.9 ± 6.1", "unit": "mg"}, {"measurement": "24 hours increase in ear thickness", "setting": "[2]; day -1 to +2, control 22.3±5.6", "value": "10.2 ± 6.0", "unit": "mg"}]}, {"smiles": "CC1=CCC[C@H]2[C@](C)(CC3=CC(=O)C=CC3=O)[C@@H](C)CC[C@]12C", "note": "[Avarone]", "values": [{"measurement": "antileukemic action", "setting": "[3]", "value": "antileukemic action"}, {"measurement": "virostatic action", "setting": "herpes simplex virus", "value": "certain virostatic action in vitro"}]}]}
